Experimental findings from the NIST ThermoML archive (doi:10.1016/j.jct.2004.09.021) are described below.

± gives the expanded uncertainty stated by the source.

For data set [1] the following is noted: 101 kPa, Liquid.
Data set [2] can be described thus: refractive index (Na D-line) (dimensionless). Conditions: 101.33 kPa, Liquid.

For orientation: mass density means mass per unit of volume. Usually viscosity stands for the internal friction of a fluid under shear. For orientation: refractive index means the speed of light in vacuum divided by its phase velocity in the sample. On to `CCCCCCCCCCCC` [dodecane], for which the mass density in data set [1] (293.15 K) worked out at 748.78 ± 0.77 kg/m3; in data set [1] (298.15 K), 745.14 ± 0.77 kg/m3; in data set [1] (303.15 K), 741.52 ± 0.78 kg/m3. Further, the viscosity is 1.487 ± 0.024 mPa·s in data set [1] (293.15 K), 1.373 ± 0.023 mPa·s in data set [1] (298.15 K) and 1.25 ± 0.021 mPa·s in data set [1] (303.15 K). Moreover, the refractive index in data set [2] (293.15 K) was 1.421 ± 0.0011; in data set [2] (298.15 K), 1.4172 ± 0.0011; in data set [2] (303.15 K), 1.4135 ± 0.0011.
On to `CCCCCCC` [heptane], for which the mass density in data set [1] (293.15 K) was determined as 683.96 ± 0.87 kg/m3; in data set [1] (298.15 K), 679.77 ± 0.88 kg/m3; in data set [1] (303.15 K) it was 675.5 ± 0.88 kg/m3. For the same molecule, the results for the viscosity in data set [1] (293.15 K), in data set [1] (298.15 K) and in data set [1] (303.15 K) were 0.4127 ± 0.0081 mPa·s, 0.3909 ± 0.0078 mPa·s and 0.3702 ± 0.0075 mPa·s, respectively. In addition, the refractive index in data set [2] (293.15 K) was found to be 1.3872 ± 0.0009; in data set [2] (298.15 K), 1.3855 ± 0.0009; in data set [2] (303.15 K), 1.3827 ± 0.001.
Regarding `CCCCCC` [hexane], the results for the mass density in data set [1] (293.15 K), in data set [1] (298.15 K) and in data set [1] (303.15 K) were 659.5 ± 0.91 kg/m3, 654.96 ± 0.92 kg/m3 and 650.42 ± 0.93 kg/m3, respectively. Besides, the viscosity in data set [1] (293.15 K) worked out at 0.3114 ± 0.0066 mPa·s; in data set [1] (298.15 K), 0.2974 ± 0.0064 mPa·s; in data set [1] (303.15 K), 0.2838 ± 0.0062 mPa·s. The refractive index amounted to 1.3759 ± 0.001 in data set [2] (293.15 K), 1.3732 ± 0.001 in data set [2] (298.15 K) and 1.3709 ± 0.0009 in data set [2] (303.15 K).
For the molecule `CCCCCCCCC` [nonane], the mass density in data set [1] (293.15 K) is recorded as 717.59 ± 2.9 kg/m3; in data set [1] (298.15 K), 713.71 ± 3 kg/m3; in data set [1] (303.15 K), 709.81 ± 3 kg/m3. The viscosity in data set [1] (293.15 K) is on record as 0.7136 ± 0.013 mPa·s; in data set [1] (298.15 K), 0.6715 ± 0.012 mPa·s; in data set [1] (303.15 K), 0.6307 ± 0.011 mPa·s. Further, the refractive index turned out to be 1.404 ± 0.0009 in data set [2] (293.15 K), 1.4027 ± 0.0009 in data set [2] (298.15 K) and 1.4002 ± 0.001 in data set [2] (303.15 K).
As for `CCCCCCCC` [octane], the results for the mass density in data set [1] (293.15 K), in data set [1] (298.15 K) and in data set [1] (303.15 K) were 702.61 ± 0.84 kg/m3, 698.57 ± 0.85 kg/m3 and 694.56 ± 0.85 kg/m3, respectively. Also, the viscosity in data set [1] (293.15 K) is 0.5464 ± 0.01 mPa·s; in data set [1] (298.15 K), 0.5123 ± 0.0096 mPa·s; in data set [1] (303.15 K), 0.483 ± 0.0091 mPa·s. For the same molecule, the refractive index in data set [2] (293.15 K) was found to be 1.3965 ± 0.0009; in data set [2] (298.15 K), 1.3947 ± 0.0009; in data set [2] (303.15 K) it was 1.3926 ± 0.0009.
